Tests used:
[1] = tested on: A549 non-small-cell human lung carcinoma; test: In vitro cytotoxicity, Microculture Tetrazolium Assay; type: cell-based; details: 96 h, A549, incubated 4 days, inhibition of proliferation by 50%
Procedure: (§1) Five cell lines were used: • 1 murine leukaemia, L1210, • 1 non-small-cell human lung carcinoma, A549, • 1 human epidermoid carcinoma, KB-3-1, and the corresponding resistant line, KB-A1, whose multi-drug resistance was induced using adriamycin (ADR), • 1 human colon carcinoma, HT29.
(§2) The cells are cultured in RPMI 1640 complete culture medium comprising 10% foetal calf serum, 2 mM glutamine, 50 units/ml of penicillin, 50 μg/ml of streptomycin and 10 mM Hepes, pH 7.4. The cells are distributed on microplates and are exposed to the cytotoxic compounds. The cells are then incubated for 2 days (L1210) or 4 days (A549, KB-A1, KB-3-1, HT29). The number of viable cells is then quantified by a colorimetric assay, the Microculture Tetrazolium Assay (Cancer Res. 1987, 47, 936-942).
(§3) The results are expressed as IC50, the concentration of cytotoxic agent that inhibits the proliferation of the treated cells by 50%.

[2] = tested on: HT29 human colon carcinoma; test: as above; type: cell-based; details: HT-29, 96 h, HT29, incubated 4 days, inhibition of proliferation by 50%
Procedure: as §1, §2, §3

[3] = tested on: KB-3-1 human epidermoid carcinoma; test: as above; type: cell-based; details: 96 h, KB-3-1, incubated 4 days, inhibition of proliferation by 50%
Procedure: as §1, §2, §3

L1210 murine leukaemia = test: as above; type: cell-based; details: Mus musculus, 48 h; L1210, incubated 2 days, inhibition of proliferation by 50%
Procedure: as §1, §2, §3

[4] = tested on: KB-A1 resistant line (multi-drug resistance induced using adriamycin); test: as above; type: cell-based, human
Procedure: as §1, §2, §3

L1210 cells = test: Action on the cell cycle; type: cell-based, murine; details: 25 nM, after 21 hours (untreated cells: 20%)
Procedure: L1210 cells are incubated for 21 hours at 37° C. in the presence of various concentrations of test compounds. The cells are then fixed using 70% ethanol (v/v), washed twice in PBS and incubated for 30 minutes at 20° C. in PBS that contains 100 μg/ml of RNAse and 50 μg/ml of propidium iodide. The results are expressed as a percentage of the cells that have accumulated in the G2+M phases after 21 hours compared with the control.

COc1ccc(CCN2C=CC=C3C2=Nc2ccccc2OS3(=O)=O)cc1 [Example 42, 1-[2-(4-Methoxyphenyl)ethyl]-1H-pyrido[3,2-c][1,2,5]benzoxathiazepine 5,5-dioxide]
IC50 [1]: 0.0113 µM | IC50 [2]: 0.0098 µM | IC50 [3]: 0.0156 µM | IC50 (L1210 murine leukaemia): 0.0082 µM | IC50 ([4]; Homo sapiens, 96 h, KB-A1, incubated 4 days, inhibition of proliferation by 50%): 0.0133 µM | recognition by P-glycoprotein (resistant line KB-A1 versus sensitive line KB-3-1) ([4]; KB-A1 as sensitive as KB-3-1): not recognised by P-glycoprotein | percentage of the cells accumulated in the G2+M phases (L1210 cells): 80-90%

From patent US20060079677A1, “Novel tricyclic azepine derivatives, method for production thereof and pharmaceutical compositions comprising the same” (priority 2003, published 2006)
